The text below walks through data of patent US10301286B2, “Piperazine derivative” (Astellas Pharma Inc., priority 2015, dated 2019).

The structures appear in SMILES notation. Structures can show the parent of a compound that is named as a salt.

For one experiment, the system named is Male Wistar rats. In words: Action on rat urethral pressure (phenylephrine-induced increase). It counts as in vivo. The following applies: anesthetized rats, intravenous, dose giving 40% inhibition of phenylephrine-induced urethral pressure ΔAUC, read-out: ID40. As for the experimental part: The present Test Example was carried out by partially modifying the technique reported as a testing system for evaluating an urethral resistance-reducing action (European Journal of Pharmacology, 679, 127-131 (2012)). Male Wistar rats (Charles River Laboratories Japan, Inc.) were anesthetized with urethane (1.2 g/kg ip), and placed in a supine position. The lower abdominal portion was midline-incised, and thus, the bladder was exposed. The bladder apex was incised, a microchip pressure transducer catheter (3.5 Fr, Millar) was inserted into the inside of the urethra, and then placed therein. In addition, a cannula for administration of a drug was placed into the femoral vein. After stabilization of the urethral pressure, phenylephrine hydrochloride (Sigma-Aldrich, 30 μg/kg) was administered intravenously to induce an increase in the urethral pressure. At an interval of about 30 minutes, this operation was repeated twice or more to confirm the stability of the reaction of a phenylephrine hydrochloride-induced increase in the urethral pressure. Thereafter, a test compound (dissolved in 20% dimethyl acetamide, 10% Cremophor (registered trademark) and 70% physiological saline) was intravenously administered, and then 5 minutes later, phenylephrine hydrochloride was administered. The procedure of administration of the test compound and administration of phenylephrine hydrochloride was repeated at an interval of about 30 minutes, and 3 to 5 doses of the test compound was evaluated (the test compound was administered at increasing doses). The data of reaction was introduced into a personal computer through PowerLab (registered trademark) (ADInstruments, Inc.), and analyzed with LabChart (registered trademark) (ADInstruments, Inc.). For the evaluation, the value of the area under the urethral pressure (mmHg·s) for one minute before and after administration of phenylephrine hydrochloride was determined to calculate the difference between before and after administration of phenylephrine hydrochloride (ΔAUC value). By taking the ΔAUC value obtained before administering the test compound as 100%, the ratio (reaction rate) of the ΔAUC value of the test compound at each dose was calculated. The rate at which the obtained reaction rate becomes 60% (40% as an inhibition rate) was defined as ID40, and the ID40 values of the test compounds were calculated by non-linear regression.

The next experiment concerns the target human MC4 receptor (Homo sapiens (Human), UniProt P32245). In words: Human MC receptor activation, cAMP production in cells expressing human MC4 receptor. The following applies: FreeStyle 293-F cells transiently expressing human MC4 receptor, α-MSH maximum = 100%. It counts as cell-based. From the text: (§1) (1) Construction of Human MC Receptor-Expressing Vector
(§2) A human MC4 receptor gene (GenBank Accession No.: NM_005912.2), a human MC1 receptor gene (GenBank Accession No.: NM_002386.3), or a human MC3 receptor gene (GenBank Accession No.: NM_019888.3) was introduced into an expression vector pcDNA™ 3.1/V5-His TOPO (registered trademark) (Thermo Fisher Scientific Inc.).
(§3) (2) Construction of Cells Transiently Expressing Human MC Receptor
(§4) An expression vector for a human MC4, MC1, or MC3 receptor was introduced into FreeStyle™ 293-F cell (Thermo Fisher Scientific Inc., product number: R790-07). For the introduction, electroporation was employed. That is, 1×10^7 FreeStyle™ 293-F cell were suspended in 80 μL of an electroporation buffer (Thermo Fisher Scientific Inc., product number: B201-100), and 20 μg of the expression vector was added thereto. The resultant was put into a cuvette (OC-100 Processing Assembly, MaxCyte, Inc.) and electroporated with MaxCyte SIX (registered trademark) (MaxCyte, Inc.). The cells were cultured over one day, suspended in a Cell Banker (registered trademark) 1 (JUJI FIELD Inc.), product number: BLC-1), and stored frozen until their use.
(§5) (3) Measurement of Amount of cAMP Produced
(§6) Measurement was carried out by using a LANCE (registered trademark) Ultra cAMP Kit (PerkinElmer, Inc.) in accordance with the attached instructions. That is, after dissolution in DMSO, the test compound (a final concentration of 1 pM to 30 μM) diluted with an assay buffer (Hank's balanced salt solution, 5 mM 4-(2-hydroxyethyl)-1-piperazineethanesulfonic acid (HEPES), 0.5 mM 3-isobutyl-1-methylxanthine (IBMX), 0.1% bovine serum albumin, pH 7.4), or α-MSH (Bachem Inc., a final concentration of 1 pM to 30 μM) was added to OptiPlate-384 (PerkinElmer, Inc.). Furthermore, a suspension of cells transiently expressing the human MC4, MC1, or MC3 receptor prepared by using the assay buffer was added thereto at 1,000 cells/well, followed by being left to stand at room temperature for about 1 hour. Thereafter, an Eu-cAMP tracer solution and an ULight™-anti-cAMP solution were added thereto, followed by being left to stand at room temperature for about 1 hour. The amount of cAMP was calculated using EnVision (registered trademark) (PerkinElmer Inc.).
(§7) For the agonistic activity, an efficacy (EC50 (μM)) was calculated by a non-linear regression method with a Sigmoid-Emax model, by defining the maximum reaction with α-MSH as 100% and the reaction with the vehicle alone as 0%, respectively.

Experiment [1] has as its system Male Sprague Dawley (SD) rats. In words: Action on drug-induced voiding dysfunction model rat. It counts as in vivo. The following applies: po, administered into the stomach, atropine sulfate + midodrine hydrochloride model, inhibition of decrease in voiding efficiency or increase of residual urine, P<0.05, read-out: Minimum effective dose. From the text:
Male Sprague Dawley (SD) rats (Japan SLC, Inc.) were anesthetized with isoflurane and a cannula was placed in bladder, the stomach, and the jugular vein. Then, the rats were awakened in a Ballman cage (Natsume Seisakusho Co., Ltd.). After a post-operative stabilization period, physiological saline was continuously infused into the bladder by an infusion pump (Terumo Corporation, product number: TE-331S) to induce voiding. Infusion of the physiological saline was stopped at the time of voiding, and the amount of the voided urine was measured using an electronic top-loading balance placed under the Ballman cage. After completion of voiding, the residual urine was collected by gravity through the cannula placed in the bladder, and weighed, and the weight was defined as the amount of the residual urine. Further, the intravesical pressure was measured by a pressure transducer (Nihon Kohden Corporation, product numbers: TP-400, TDX-100) through the bladder cannula. The test compound or the vehicle was administered into the stomach, and atropine sulfate (Sigma-Aldrich, Inc., 0.01 mg/kg), which is an anticholinergic drug, and midodrine hydrochloride (Sigma-Aldrich, Inc., 0.3 mg/kg), which is an α1 adrenergic receptor stimulant, were administered intravenously to induce voiding dysfunctions. The voiding efficiency (=[voided amount/(voided amount+amount of residual urine)]×100) and the amount of the residual urine before and after administration of the test compound or the vehicle were measured, and the amount changed was evaluated. The value with vehicle administration and the value with the test compound administration were compared in a Dunnett's multiple comparison test with a statistically significant difference (P<0.05), and the minimum dose at which the inhibitory effect on a decrease in voiding efficiency or an increase of the amount of residual urine had been observed was defined as a minimal effective dose (3 to 12 animals per group).

In another experiment the target is human MC3 receptor (Homo sapiens (Human), UniProt P41968). In words: Human MC receptor activation, cAMP production in cells expressing human MC3 receptor. The following applies: FreeStyle 293-F cells transiently expressing human MC3 receptor, α-MSH maximum = 100%. It counts as cell-based.
Sequence of human MC3 receptor (P41968 whole entry): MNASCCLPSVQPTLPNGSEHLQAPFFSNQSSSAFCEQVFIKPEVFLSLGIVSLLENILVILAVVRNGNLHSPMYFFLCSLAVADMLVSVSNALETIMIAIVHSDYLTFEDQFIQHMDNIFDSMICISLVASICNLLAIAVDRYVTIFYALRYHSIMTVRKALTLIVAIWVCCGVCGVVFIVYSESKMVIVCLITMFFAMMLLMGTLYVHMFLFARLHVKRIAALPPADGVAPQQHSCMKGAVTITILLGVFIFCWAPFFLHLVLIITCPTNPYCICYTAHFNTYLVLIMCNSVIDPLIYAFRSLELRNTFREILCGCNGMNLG
Source text: as §1, §2, §3, §4, §5, §6, §7
On the technique in general: Cyclic AMP is a second messenger, typically raised through Gs and lowered through Gi signalling.

Sequence of human MC4 receptor (P32245 whole entry): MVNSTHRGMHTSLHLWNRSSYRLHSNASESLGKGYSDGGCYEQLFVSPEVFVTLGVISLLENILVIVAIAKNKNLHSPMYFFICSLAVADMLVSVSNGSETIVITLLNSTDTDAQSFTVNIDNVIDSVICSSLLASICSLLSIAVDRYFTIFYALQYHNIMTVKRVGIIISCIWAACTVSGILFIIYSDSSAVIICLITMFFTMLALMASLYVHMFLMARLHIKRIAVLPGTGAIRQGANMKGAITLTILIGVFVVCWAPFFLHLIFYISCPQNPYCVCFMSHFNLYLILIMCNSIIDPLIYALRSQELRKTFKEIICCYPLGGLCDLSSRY

In general, EC50 refers to the concentration at which the effect is half-maximal. A higher EC50 goes with lower potency in that assay. For `Cc1ccc(C[C@@H](C(=O)O)N2CCN(C(=O)[C@@H]3CN(C(C)(C)C)C[C@H]3c3ccc(Cl)cc3F)[C@@H](C)C2)c(F)c1` [Example 4, (2S)-2-[(3S)-4-{[(3S,4R)-1-tert-butyl-4-(4-chloro-2-fluorophenyl)pyrrolidin-3-yl]carbonyl}-3-methylpiperazin-1-yl]-3-(2-fluoro-4-methylphenyl)propanoic acid dihydrochloride], the ED40 in the experiment with Male Wistar rats is 0.0094 mg/kg. For the same molecule, the EC50 at human MC4 receptor is 0.0015 µM; on human MC3 receptor, 0.18 µM. The minimal effective dose in experiment [1] was determined as 0.03 mg/kg.

For `C[C@H]1CN([C@@H](Cc2ccc3c(c2)CCC3)C(=O)O)CCN1C(=O)[C@@H]1CN(C(C)(C)C)C[C@H]1c1ccc(F)cc1F` [Example 5, (2S)-2-[(3S)-4-{[(3S,4R)-1-tert-butyl-4-(2,4-difluorophenyl)pyrrolidin-3-yl]carbonyl}-3-methylpiperazin-1-yl]-3-(2,3-dihydro-1H-inden-5-yl)propanoic acid dihydrochloride], the ED40 with Male Wistar rats is 0.13 mg/kg. For the same molecule, the half-maximal effective concentration (EC50) on human MC4 receptor was determined as 0.025 µM; on human MC3 receptor it was 4.2 µM. Further, the minimal effective dose in experiment [1] turned out to be 0.3 mg/kg.

With `CCC[C@H]1CN([C@@H](Cc2ccc3ccccc3c2)C(=O)O)CCN1C(=O)[C@@H]1CN(C(C)(C)C)C[C@H]1c1ccc(F)cc1F` [Example 9], the ED40 in the experiment with Male Wistar rats amounted to 0.047 mg/kg. The EC50 is 0.0032 µM at human MC4 receptor and 0.91 µM on human MC3 receptor. Further, the minimal effective dose in experiment [1] was 3 mg/kg.

On to `Cc1ccc(C[C@@H](C(=O)O)N2CCN(C(=O)[C@@H]3CN(C(C)(C)C)C[C@H]3c3ccc(Cl)cc3F)[C@@H](C)C2)cc1` [Example 11], for which the ED40 in the experiment with Male Wistar rats is 0.088 mg/kg. The 50% effective concentration (EC50) on human MC4 receptor is 0.017 µM; at human MC3 receptor, 3.7 µM. In experiment [1], the minimal effective dose amounted to 0.3 mg/kg.

Turning to `Cc1cc(F)c(C[C@@H](C(=O)O)N2CCN(C(=O)[C@@H]3CN(C(C)(C)C)C[C@H]3c3ccc(Cl)cc3F)[C@@H](C)C2)c(F)c1` [Example 76], in the experiment with Male Wistar rats, the ED40 is 0.0047 mg/kg. Moreover, the EC50 at human MC4 receptor turned out to be 0.00096 µM; on human MC3 receptor it was 0.33 µM. In addition, the minimal effective dose in experiment [1] is 0.03 mg/kg.

Consider `Cc1ccc(C[C@@H](C(=O)O)N2CCN(C(=O)[C@@H]3CN(C4CCOCC4)C[C@H]3c3ccc(Cl)cc3F)[C@@H](C)C2)c(F)c1` [Example 87, (2S)-2-[(3S)-4-{[(3S,4R)-4-(4-chloro-2-fluorophenyl)-1-(tetrahydro-2H-pyran-4-yl)pyrrolidin-3-yl]carbonyl}-3-methylpiperazin-1-yl]-3-(2-fluoro-4-methylphenyl)propanoic acid dihydrochloride], for which, in the experiment on Male Wistar rats, the ED40 is 0.04 mg/kg. Besides, the EC50 came out at 0.011 µM at human MC4 receptor and 0.92 µM on human MC3 receptor. In addition, in experiment [1], the minimal effective dose stood at 0.1 mg/kg.

`Cc1cc(C)c(C[C@@H](C(=O)O)N2CCN(C(=O)[C@@H]3CN(C4CCOCC4)C[C@H]3c3ccc(Cl)cc3F)[C@@H](C)C2)c(F)c1` [Example 88]: the ED40 in the experiment on Male Wistar rats was determined as 0.04 mg/kg. The half-maximal effective concentration (EC50) on human MC4 receptor is 0.012 µM; at human MC3 receptor, 0.88 µM. Moreover, the minimal effective dose in experiment [1] was 0.1 mg/kg.

For the molecule `Cc1cc(C)c(C[C@@H](C(=O)O)N2CCN(C(=O)[C@@H]3CN(C(C)(C)C)C[C@H]3c3ccc(Cl)cc3F)[C@@H](C)C2)c(C)c1` [Example 89], the ED40 with Male Wistar rats was 0.024 mg/kg. Besides, the 50% effective concentration (EC50) on human MC4 receptor is 0.003 µM; on human MC3 receptor, 0.78 µM. The minimal effective dose in experiment [1] stood at 0.1 mg/kg.
